“And” between values parts separate entries of the source, which are not always exact repeats. Identical values can stand only once.
What was measured:
Experiment in all cases: CYP51 reconstitution assay
Type in all cases: biochemical
CaCYP51 Y132F+F145L = biological target: T1, CaCYP51 Y132F+F145L (Candida albicans, UniProt P10613, F145L/Y132F)
T1 construct: made in house; host or cells: E. coli DH5α (pCWori+)
Procedure: (§1) Azole antifungal agents were added in 2.5 μl dimethyl sulfoxide, followed by 10 min of incubation at 37°C prior to assay initiation with 4 mM β-NADPH-Na4. The samples were then shaken for 15 min at 37°C. Sterol metabolites were recovered by extraction with ethyl acetate, followed by derivatization with 0.1 ml N,O-bis(trimethylsilyl)trifluoroacetamide (BSTFA)–trimethylchlorosilane (TMCS) (99:1) and 0.3 ml anhydrous pyridine (2 h at 80°C), prior to analysis by gas chromatography-mass spectrometry (GC-MS) ([52]). IC50 determinations were performed in duplicate.

CaCYP51 D278N = biological target: T2, CaCYP51 D278N (Candida albicans, UniProt P10613, D278N)
T2 construct: made in house; host or cells: E. coli DH5α (pCWori+)
Procedure: as §1

CaCYP51 D278N+G464S = biological target: T3, CaCYP51 D278N+G464S (Candida albicans, UniProt P10613, D278N/G464S)
T3 construct: made in house; host or cells: E. coli DH5α (pCWori+)
Procedure: as §1

CaCYP51 F126V = biological target: T4, CaCYP51 F126V (Candida albicans, UniProt P10613, F126V)
T4 construct: made in house; host or cells: E. coli DH5α (pCWori+)
Procedure: as §1

CaCYP51 F145L = biological target: T5, CaCYP51 F145L (Candida albicans, UniProt P10613, F145L)
T5 construct: made in house; host or cells: E. coli DH5α (pCWori+)
T5 sequence (P10613 whole entry, looked up, stated change not applied): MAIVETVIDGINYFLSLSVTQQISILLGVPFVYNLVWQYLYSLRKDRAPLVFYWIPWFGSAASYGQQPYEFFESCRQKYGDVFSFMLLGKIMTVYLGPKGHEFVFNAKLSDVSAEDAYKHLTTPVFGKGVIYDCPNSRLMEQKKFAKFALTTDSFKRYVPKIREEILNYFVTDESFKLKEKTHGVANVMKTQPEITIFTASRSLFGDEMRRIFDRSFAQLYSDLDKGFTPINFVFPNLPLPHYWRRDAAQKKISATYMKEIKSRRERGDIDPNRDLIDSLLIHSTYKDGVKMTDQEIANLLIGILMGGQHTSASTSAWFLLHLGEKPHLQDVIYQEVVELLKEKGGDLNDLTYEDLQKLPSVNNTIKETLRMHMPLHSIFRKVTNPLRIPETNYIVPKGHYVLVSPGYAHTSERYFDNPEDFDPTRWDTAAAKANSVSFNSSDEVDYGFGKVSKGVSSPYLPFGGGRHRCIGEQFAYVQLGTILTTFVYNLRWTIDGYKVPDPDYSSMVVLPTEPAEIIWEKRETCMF
Procedure: as §1

CaCYP51 F449Y = biological target: T6, CaCYP51 F449Y (Candida albicans, UniProt P10613, F449Y)
T6 construct: made in house; host or cells: E. coli DH5α (pCWori+)
Procedure: as §1

CaCYP51 G307S = biological target: T7, CaCYP51 G307S (Candida albicans, UniProt P10613, G307S)
T7 construct: made in house; host or cells: E. coli DH5α (pCWori+)
T7 sequence (P10613 whole entry, looked up, stated change not applied): as above
Procedure: as §1

CaCYP51 G307S+G450E = biological target: T8, CaCYP51 G307S+G450E (Candida albicans, UniProt P10613, G307S/G450E)
T8 construct: made in house; host or cells: E. coli DH5α (pCWori+)
Procedure: as §1

CaCYP51 G448E = biological target: T9, CaCYP51 G448E (Candida albicans, UniProt P10613, G448E)
T9 construct: made in house; host or cells: E. coli DH5α (pCWori+)
Procedure: as §1

CaCYP51 G450E = biological target: T10, CaCYP51 G450E (Candida albicans, UniProt P10613, G450E)
T10 construct: made in house; host or cells: E. coli DH5α (pCWori+)
Procedure: as §1

CaCYP51 G464S = biological target: T11, CaCYP51 G464S (Candida albicans, UniProt P10613, G464S)
T11 construct: made in house; host or cells: E. coli DH5α (pCWori+)
T11 sequence (P10613 whole entry, looked up, stated change not applied): as above
Procedure: as §1

CaCYP51 I471T = biological target: T12, CaCYP51 I471T (Candida albicans, UniProt P10613, I471T)
T12 construct: made in house; host or cells: E. coli DH5α (pCWori+)
T12 sequence (P10613 whole entry, looked up, stated change not applied): as above
Procedure: as §1

CaCYP51 K143R = biological target: T13, CaCYP51 K143R (Candida albicans, UniProt P10613, K143R); settings: mean ± SD, duplicate
T13 construct: made in house; host or cells: E. coli DH5α (pCWori+)
Procedure: as §1

CaCYP51 P230L = biological target: T14, CaCYP51 P230L (Candida albicans, UniProt P10613, P230L)
T14 construct: made in house; host or cells: E. coli DH5α (pCWori+)
Procedure: as §1

CaCYP51 Q474K = biological target: T15, CaCYP51 Q474K (Candida albicans, UniProt P10613, Q474K)
T15 construct: made in house; host or cells: E. coli DH5α (pCWori+)
T15 sequence (P10613 whole entry, looked up, stated change not applied): as above
Procedure: as §1

CaCYP51 R467K = biological target: T16, CaCYP51 R467K (Candida albicans, UniProt P10613, R467K)
T16 construct: made in house; host or cells: E. coli DH5α (pCWori+)
T16 sequence (P10613 whole entry, looked up, stated change not applied): as above
Procedure: as §1

CaCYP51 S279F = biological target: T17, CaCYP51 S279F (Candida albicans, UniProt P10613, S279F)
T17 construct: made in house; host or cells: E. coli DH5α (pCWori+)
Procedure: as §1

CaCYP51 S405F = biological target: T18, CaCYP51 S405F (Candida albicans, UniProt P10613, S405F)
T18 construct: made in house; host or cells: E. coli DH5α (pCWori+)
Procedure: as §1

CaCYP51 V437I = biological target: T19, CaCYP51 V437I (Candida albicans, UniProt P10613, V437I)
T19 construct: made in house; host or cells: E. coli DH5α (pCWori+)
Procedure: as §1

CaCYP51 V456I = biological target: T20, CaCYP51 V456I (Candida albicans, UniProt P10613, V456I)
T20 construct: made in house; host or cells: E. coli DH5α (pCWori+)
Procedure: as §1

CaCYP51 V488I = biological target: T21, CaCYP51 V488I (Candida albicans, UniProt P10613, V488I); settings: mean ± SD, duplicate
T21 construct: made in house; host or cells: E. coli DH5α (pCWori+)
Procedure: as §1

CaCYP51 Wild type = biological target: T22, CaCYP51 Wild type (Candida albicans, UniProt P10613); settings: Wild type
T22 construct: made in house; host or cells: E. coli DH5α (pCWori+)
T22 sequence (P10613 whole entry, looked up, natural form): as the sequence (P10613 whole entry, looked up, stated change not applied) above
Procedure: as §1

CaCYP51 Y118A = biological target: T23, CaCYP51 Y118A (Candida albicans, UniProt P10613, Y118A)
T23 construct: made in house; host or cells: E. coli DH5α (pCWori+)
Procedure: as §1

CaCYP51 Y132F = biological target: T24, CaCYP51 Y132F (Candida albicans, UniProt P10613, Y132F)
T24 construct: made in house; host or cells: E. coli DH5α (pCWori+)
Procedure: as §1

CaCYP51 Y132H = biological target: T25, CaCYP51 Y132H (Candida albicans, UniProt P10613, Y132H); settings: mean ± SD, duplicate
T25 construct: made in house; host or cells: E. coli DH5α (pCWori+)
Procedure: as §1

CaCYP51 Y132H+K143R = biological target: T26, CaCYP51 Y132H+K143R (Candida albicans, UniProt P10613, K143R/Y132H)
T26 construct: made in house; host or cells: E. coli DH5α (pCWori+)
Procedure: as §1

CaCYP51 Y257H = biological target: T27, CaCYP51 Y257H (Candida albicans, UniProt P10613, Y257H)
T27 construct: made in house; host or cells: E. coli DH5α (pCWori+)
T27 sequence (P10613 whole entry, looked up, stated change not applied): as above
Procedure: as §1

CaCYP51 Y447H = biological target: T28, CaCYP51 Y447H (Candida albicans, UniProt P10613, Y447H)
T28 construct: made in house; host or cells: E. coli DH5α (pCWori+)
Procedure: as §1

[1] = 0.25 h, 4 μM triazole, % of activity without triazole, read-out: Residual CYP51 activity (%) ± SD

T1 sequence (P10613 whole entry, looked up, stated change not applied): as above

In the case of CCC(C)n1ncn(-c2ccc(N3CCN(c4ccc(OCC5COC(Cn6cncn6)(c6ccc(Cl)cc6Cl)O5)cc4)CC3)cc2)c1=O (centres unmarked) [Itraconazole, itraconazole], the IC50 (CaCYP51 Y132F+F145L) is reported as 364 ± 23 nM, the remaining activity at 4 µM (CaCYP51 Y132F+F145L; 0.25 h, read-out: Residual CYP51 activity (%) ± SD) is reported as 0.91 ± 0.05% and the remaining activity at 4 µM (CaCYP51 D278N; [1]) is reported as 3 ± 0.19%. The IC50 (CaCYP51 D278N; mean ± SD, duplicate) was 545 ± 44 nM, the remaining activity at 4 µM (CaCYP51 D278N+G464S; [1]) was 3.19 ± 0.46% and the IC50 (CaCYP51 D278N+G464S; mean ± SD, duplicate) was 403 ± 11 nM. The remaining activity at 4 µM (CaCYP51 F126V; [1]) was 0.22 ± 0.05%, the IC50 (CaCYP51 F126V; mean ± SD, duplicate) was 206 ± 9 nM and the remaining activity at 4 µM (CaCYP51 F145L; [1]) was 1.99 ± 0.04%. It also gave an IC50 (CaCYP51 F145L; mean ± SD, duplicate) of 300 ± 13 nM, a remaining activity at 4 µM (CaCYP51 F449Y; [1]) of 0.84 ± 0.57% and an IC50 (CaCYP51 F449Y; mean ± SD, duplicate) of 222 ± 11 nM. For the same molecule, the remaining activity at 4 µM (CaCYP51 G307S; [1]) was 0.53 ± 0.21%, the IC50 (CaCYP51 G307S; mean ± SD, duplicate) was 225 ± 7 nM and the remaining activity at 4 µM (CaCYP51 G307S+G450E; [1]) was 0.2 ± 0.04%. For the same molecule, the IC50 (CaCYP51 G307S+G450E; mean ± SD, duplicate) was 318 ± 17 nM, the remaining activity at 4 µM (CaCYP51 G448E; [1]) was 1.75 ± 0.26% and the IC50 (CaCYP51 G448E; mean ± SD, duplicate) was 238 ± 13 nM. The remaining activity at 4 µM (CaCYP51 G450E; [1]) was 7.66 ± 0.54%, the IC50 (CaCYP51 G450E; mean ± SD, duplicate) was 458 ± 70 nM and the remaining activity at 4 µM (CaCYP51 G464S; [1]) was 0.54 ± 0.11%. It also gave an IC50 (CaCYP51 G464S; mean ± SD, duplicate) of 282 ± 6 nM, a remaining activity at 4 µM (CaCYP51 I471T; [1]) of 1.21 ± 0.01% and an IC50 (CaCYP51 I471T; mean ± SD, duplicate) of 218 ± 2 nM. It also gave an IC50 (CaCYP51 K143R) of 450 ± 16 nM, a remaining activity at 4 µM (CaCYP51 P230L; [1]) of 0.06 ± 0.01% and an IC50 (CaCYP51 P230L; mean ± SD, duplicate) of 265 ± 38 nM. It also gave a remaining activity at 4 µM (CaCYP51 Q474K; [1]) of 0.49 ± 0.04%, an IC50 (CaCYP51 Q474K; mean ± SD, duplicate) of 246 ± 6 nM and a remaining activity at 4 µM (CaCYP51 R467K; [1]) of 0.45 ± 0.17%. The IC50 (CaCYP51 R467K; mean ± SD, duplicate) was 235 ± 18 nM, the remaining activity at 4 µM (CaCYP51 S279F; [1]) was 5.97 ± 0.35% and the IC50 (CaCYP51 S279F; mean ± SD, duplicate) was 569 ± 121 nM. It also gave a remaining activity at 4 µM (CaCYP51 S405F; [1]) of 2.73 ± 0.13%, an IC50 (CaCYP51 S405F; mean ± SD, duplicate) of 350 ± 19 nM and a remaining activity at 4 µM (CaCYP51 V437I; [1]) of 0.13 ± 0.02%. For the same molecule, the IC50 (CaCYP51 V437I; mean ± SD, duplicate) was 293 ± 22 nM, the remaining activity at 4 µM (CaCYP51 V456I; [1]) was 3.21 ± 0.07% and the IC50 (CaCYP51 V456I; mean ± SD, duplicate) was 603 ± 2 nM. For the same molecule, the IC50 (CaCYP51 V488I) was 449 ± 16 nM, the remaining activity at 4 µM (CaCYP51 Wild type; [1]) was 0.03 ± 0.02% and the IC50 (CaCYP51 Wild type; mean ± SD, duplicate, read-out: IC50) was 390 nM and 389 nM. The remaining activity at 4 µM (CaCYP51 Y118A; [1]) was 1.3 ± 0.59%, the IC50 (CaCYP51 Y118A; mean ± SD, duplicate) was 170 ± 16 nM and the remaining activity at 4 µM (CaCYP51 Y132F; [1]) was 0.19 ± 0.04%. It also gave an IC50 (CaCYP51 Y132F; mean ± SD, duplicate) of 309 ± 3 nM, an IC50 (CaCYP51 Y132H) of 150 ± 28 nM and a remaining activity at 4 µM (CaCYP51 Y132H+K143R; [1]) of 0.7 ± 0.03%. It also gave an IC50 (CaCYP51 Y132H+K143R; mean ± SD, duplicate) of 237 ± 7 nM, a remaining activity at 4 µM (CaCYP51 Y257H; [1]) of 1.37 ± 0.28% and an IC50 (CaCYP51 Y257H; mean ± SD, duplicate) of 336 ± 14 nM. The remaining activity at 4 µM (CaCYP51 Y447H; [1]) was 1.45 ± 0.06% and the IC50 (CaCYP51 Y447H; mean ± SD, duplicate) was 299 ± 39 nM.

— PMC6496074, “The Evolution of Azole Resistance in Candida albicans Sterol 14α-Demethylase (CYP51) through Incremental Amino Acid Substitutions” (Antimicrobial Agents and Chemotherapy, 2019)
